The values that follow come from ChEMBL document CHEMBL5260838 (J Med Chem, 2019).

Molecules are shown by their SMILES.

A short description of data set [1]: Drug concentration in plasma of FVB mouse model of aconitine-induced pain expressing human Nav1.7 I848T mutant at 3 mg/kg, po administered 120 mins prior to aconitine administered and measured after 70 mins by UPLC-ESI MS/MS analysis. The format is ADME, organism-based. The following applies: time 190 min.
Data set [2] can be described thus: Half-life in Beagle dog at 1 mg/kg, po. The format is ADME, organism-based, Canis lupus familiaris. As to conditions: in vivo.
For data set [3], the target named is Sodium channel protein type 8 subunit alpha (Homo sapiens, UniProt Q9UQD0). The experiment in a line: Inhibition of human Nav1.6 alpha subunit expressed in HEK293 cells co-expressing beta1 subunit at -35 mV holding potential by PatchXpress automated voltage clamp electrophysiology technique. It counts as cell-based.
Data set [4] can be described thus: Toxicity in FVB mouse assessed as tolerance. The following applies: in vivo.
Data set [5] is described as follows: Protein binding in rat plasma. The following applies: read-out: PPB (converted). It counts as ADME, cell-free.
Data set [6] concerns the target T1, Peroxisome proliferator-activated receptor gamma (Homo sapiens) (UniProt P37231).
T1 sequence (whole entry): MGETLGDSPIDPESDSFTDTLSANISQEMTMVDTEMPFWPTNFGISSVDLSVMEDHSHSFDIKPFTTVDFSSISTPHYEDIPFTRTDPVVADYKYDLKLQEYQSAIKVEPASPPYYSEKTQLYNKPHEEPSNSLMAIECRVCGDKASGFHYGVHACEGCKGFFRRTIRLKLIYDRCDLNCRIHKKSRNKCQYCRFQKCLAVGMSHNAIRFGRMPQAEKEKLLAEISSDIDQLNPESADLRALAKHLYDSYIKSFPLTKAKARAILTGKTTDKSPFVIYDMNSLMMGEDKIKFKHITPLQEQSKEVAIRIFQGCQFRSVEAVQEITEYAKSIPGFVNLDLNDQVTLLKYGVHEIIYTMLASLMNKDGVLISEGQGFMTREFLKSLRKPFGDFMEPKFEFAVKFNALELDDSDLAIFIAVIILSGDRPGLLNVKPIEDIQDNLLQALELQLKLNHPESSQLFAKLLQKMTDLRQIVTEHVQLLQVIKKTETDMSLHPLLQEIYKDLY
The experiment in a line: Inhibition of PPARgamma (unknown origin) at 10 uM relative to control.

The nature of data set [7]: Volume of distribution at steady state in FVB mouse at 1 mg/kg, iv. It counts as ADME, organism-based. The following applies: in vivo, iv, 1 mg/kg.
The subject of data set [8] is mouse breast cancer resistant protein (Bcrp). The experiment in a line: Apparent permeability from apical to basolateral side in MDCK-II cells expressing mouse breast cancer resistant protein. It counts as ADME, cell-based, Canis lupus familiaris. The following applies: dog.
A further data set is filed under the species Homo sapiens. The experiment in a line: Inhibition of voltage-gated sodium channel (unknown origin) at 10 uM relative to control.
A further data set has as its target T2, Cytochrome P450 1A2 (Homo sapiens, UniProt P05177).
T2 sequence (P05177 whole entry): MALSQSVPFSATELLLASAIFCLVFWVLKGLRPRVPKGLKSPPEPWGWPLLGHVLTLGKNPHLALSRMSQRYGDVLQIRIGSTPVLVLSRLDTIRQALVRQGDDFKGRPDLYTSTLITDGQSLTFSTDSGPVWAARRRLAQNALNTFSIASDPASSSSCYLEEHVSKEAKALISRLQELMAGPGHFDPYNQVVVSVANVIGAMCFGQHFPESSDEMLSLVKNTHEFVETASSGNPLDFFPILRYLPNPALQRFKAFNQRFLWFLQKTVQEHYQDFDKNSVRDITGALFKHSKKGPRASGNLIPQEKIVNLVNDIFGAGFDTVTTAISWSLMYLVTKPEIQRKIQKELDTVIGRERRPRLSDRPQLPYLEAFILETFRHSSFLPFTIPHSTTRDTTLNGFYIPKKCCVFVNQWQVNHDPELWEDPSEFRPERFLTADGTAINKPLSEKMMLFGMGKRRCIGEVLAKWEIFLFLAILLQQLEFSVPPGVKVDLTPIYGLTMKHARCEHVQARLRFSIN
The experiment in a line: Inhibition of CYP1A2 (unknown origin). It counts as ADME.

In data set [9] the target is Sodium channel protein type 10 subunit alpha (Mus musculus) (UniProt Q6QIY3). The experiment in a line: Inhibition of TTX-resistant Nav1.8 in mouse dorsal root ganglion neuron at 10 uM by voltage clamp recording relative to control. It counts as tissue-based. As to conditions: DRG neuron.
Data set [10] in a line: Lipophilicity, logD of the compound at pH 7.4. The following applies: buffer, read-out: logD. The format is physicochemical.
A short description of data set [11]: Drug concentration in plasma of FVB mouse model of aconitine-induced pain expressing human Nav1.7 I848T mutant at 10 mg/kg, po administered 120 mins prior to aconitine administered and measured after 70 mins by UPLC-ESI MS/MS analysis. It counts as ADME, organism-based. As to conditions: time 190 min.
Data set [12] concerns the target Sodium channel protein type 9 subunit alpha (Homo sapiens, UniProt Q15858). The experiment in a line: Inhibition of human Nav1.7 alpha subunit expressed in HEK293 cells co-expressing beta1 subunit at -60 mV holding potential by whole-cell patch voltage clamp electrophysiology recording. It counts as cell-based.
Data set [13] in a line: Drug concentration in brain of FVB mouse model of aconitine-induced pain expressing human Nav1.7 I848T mutant at 3 mg/kg, po administered 120 mins prior to aconitine administered and measured after 70 mins by UPLC-ESI MS/MS analysis. The format is ADME, organism-based. As to conditions: time 190 min, read-out: Ct.
Data set [14] is described as follows: Brain to plasma ratio in FVB mouse model of aconitine-induced pain expressing human Nav1.7 I848T mutant administered orally 120 mins prior to aconitine administered and measured after 70 mins by UPLC-ESI MS/MS analysis. The following applies: route po, time 190 min, read-out: BPR. It counts as ADME.
Another data set has as its target Cytochrome P450 2C19 (Homo sapiens, UniProt P33261). The experiment in a line: Inhibition of CYP2C19 (unknown origin). The format is ADME.

Sequence of Sodium channel protein type 9 subunit alpha (Q15858 whole entry): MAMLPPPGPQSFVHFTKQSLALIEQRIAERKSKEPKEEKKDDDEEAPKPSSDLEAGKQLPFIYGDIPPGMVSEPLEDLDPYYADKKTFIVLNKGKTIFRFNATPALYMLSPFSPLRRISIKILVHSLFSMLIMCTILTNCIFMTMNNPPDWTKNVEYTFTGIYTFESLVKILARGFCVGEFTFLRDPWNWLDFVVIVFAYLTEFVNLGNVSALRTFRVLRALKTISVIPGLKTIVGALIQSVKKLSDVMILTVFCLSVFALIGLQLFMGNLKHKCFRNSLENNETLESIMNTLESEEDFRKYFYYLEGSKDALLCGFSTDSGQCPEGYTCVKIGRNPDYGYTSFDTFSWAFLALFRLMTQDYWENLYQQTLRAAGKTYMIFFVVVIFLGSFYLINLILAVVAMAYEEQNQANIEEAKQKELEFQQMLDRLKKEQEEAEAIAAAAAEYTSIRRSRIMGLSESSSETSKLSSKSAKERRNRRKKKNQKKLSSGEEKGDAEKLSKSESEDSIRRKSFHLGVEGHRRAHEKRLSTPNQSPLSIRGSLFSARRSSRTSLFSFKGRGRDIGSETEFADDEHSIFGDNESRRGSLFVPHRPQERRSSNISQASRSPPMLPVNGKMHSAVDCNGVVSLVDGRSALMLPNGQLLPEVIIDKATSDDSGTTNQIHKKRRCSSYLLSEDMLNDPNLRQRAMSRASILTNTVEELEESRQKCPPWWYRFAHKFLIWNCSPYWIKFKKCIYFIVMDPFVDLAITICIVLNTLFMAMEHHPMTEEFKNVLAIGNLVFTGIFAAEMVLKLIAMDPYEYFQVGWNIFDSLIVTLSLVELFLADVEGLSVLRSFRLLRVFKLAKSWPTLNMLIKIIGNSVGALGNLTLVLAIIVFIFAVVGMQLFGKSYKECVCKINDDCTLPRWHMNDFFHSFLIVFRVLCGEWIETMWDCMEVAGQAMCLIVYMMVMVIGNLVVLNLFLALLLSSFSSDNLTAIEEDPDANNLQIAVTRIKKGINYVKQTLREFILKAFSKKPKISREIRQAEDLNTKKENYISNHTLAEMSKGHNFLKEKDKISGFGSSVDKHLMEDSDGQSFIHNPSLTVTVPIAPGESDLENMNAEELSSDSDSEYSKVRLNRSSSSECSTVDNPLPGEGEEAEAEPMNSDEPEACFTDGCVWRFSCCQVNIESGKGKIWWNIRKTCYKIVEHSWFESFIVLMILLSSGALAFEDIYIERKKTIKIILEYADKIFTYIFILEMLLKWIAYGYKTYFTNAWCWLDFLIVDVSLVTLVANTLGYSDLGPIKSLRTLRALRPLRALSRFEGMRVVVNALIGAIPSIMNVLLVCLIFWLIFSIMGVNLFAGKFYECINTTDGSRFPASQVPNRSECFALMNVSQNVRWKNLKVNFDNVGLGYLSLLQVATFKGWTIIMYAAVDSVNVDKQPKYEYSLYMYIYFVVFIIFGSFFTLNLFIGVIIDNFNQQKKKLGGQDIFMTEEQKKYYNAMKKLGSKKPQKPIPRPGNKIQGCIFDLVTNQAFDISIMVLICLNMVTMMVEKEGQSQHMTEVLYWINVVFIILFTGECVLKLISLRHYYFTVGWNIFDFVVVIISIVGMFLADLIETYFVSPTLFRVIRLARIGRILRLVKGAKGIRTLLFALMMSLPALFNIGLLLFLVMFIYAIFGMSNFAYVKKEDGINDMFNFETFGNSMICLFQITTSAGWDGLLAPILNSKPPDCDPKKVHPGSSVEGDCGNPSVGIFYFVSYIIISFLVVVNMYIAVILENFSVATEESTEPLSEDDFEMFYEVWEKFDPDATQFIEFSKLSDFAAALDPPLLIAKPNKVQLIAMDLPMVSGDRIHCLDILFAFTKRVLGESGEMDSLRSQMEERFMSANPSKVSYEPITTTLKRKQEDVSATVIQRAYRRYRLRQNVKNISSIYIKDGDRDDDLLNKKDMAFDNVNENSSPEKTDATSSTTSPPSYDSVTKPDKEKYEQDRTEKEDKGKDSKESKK
Sequence of Sodium channel protein type 10 subunit alpha (Mus musculus) (Q6QIY3 whole entry): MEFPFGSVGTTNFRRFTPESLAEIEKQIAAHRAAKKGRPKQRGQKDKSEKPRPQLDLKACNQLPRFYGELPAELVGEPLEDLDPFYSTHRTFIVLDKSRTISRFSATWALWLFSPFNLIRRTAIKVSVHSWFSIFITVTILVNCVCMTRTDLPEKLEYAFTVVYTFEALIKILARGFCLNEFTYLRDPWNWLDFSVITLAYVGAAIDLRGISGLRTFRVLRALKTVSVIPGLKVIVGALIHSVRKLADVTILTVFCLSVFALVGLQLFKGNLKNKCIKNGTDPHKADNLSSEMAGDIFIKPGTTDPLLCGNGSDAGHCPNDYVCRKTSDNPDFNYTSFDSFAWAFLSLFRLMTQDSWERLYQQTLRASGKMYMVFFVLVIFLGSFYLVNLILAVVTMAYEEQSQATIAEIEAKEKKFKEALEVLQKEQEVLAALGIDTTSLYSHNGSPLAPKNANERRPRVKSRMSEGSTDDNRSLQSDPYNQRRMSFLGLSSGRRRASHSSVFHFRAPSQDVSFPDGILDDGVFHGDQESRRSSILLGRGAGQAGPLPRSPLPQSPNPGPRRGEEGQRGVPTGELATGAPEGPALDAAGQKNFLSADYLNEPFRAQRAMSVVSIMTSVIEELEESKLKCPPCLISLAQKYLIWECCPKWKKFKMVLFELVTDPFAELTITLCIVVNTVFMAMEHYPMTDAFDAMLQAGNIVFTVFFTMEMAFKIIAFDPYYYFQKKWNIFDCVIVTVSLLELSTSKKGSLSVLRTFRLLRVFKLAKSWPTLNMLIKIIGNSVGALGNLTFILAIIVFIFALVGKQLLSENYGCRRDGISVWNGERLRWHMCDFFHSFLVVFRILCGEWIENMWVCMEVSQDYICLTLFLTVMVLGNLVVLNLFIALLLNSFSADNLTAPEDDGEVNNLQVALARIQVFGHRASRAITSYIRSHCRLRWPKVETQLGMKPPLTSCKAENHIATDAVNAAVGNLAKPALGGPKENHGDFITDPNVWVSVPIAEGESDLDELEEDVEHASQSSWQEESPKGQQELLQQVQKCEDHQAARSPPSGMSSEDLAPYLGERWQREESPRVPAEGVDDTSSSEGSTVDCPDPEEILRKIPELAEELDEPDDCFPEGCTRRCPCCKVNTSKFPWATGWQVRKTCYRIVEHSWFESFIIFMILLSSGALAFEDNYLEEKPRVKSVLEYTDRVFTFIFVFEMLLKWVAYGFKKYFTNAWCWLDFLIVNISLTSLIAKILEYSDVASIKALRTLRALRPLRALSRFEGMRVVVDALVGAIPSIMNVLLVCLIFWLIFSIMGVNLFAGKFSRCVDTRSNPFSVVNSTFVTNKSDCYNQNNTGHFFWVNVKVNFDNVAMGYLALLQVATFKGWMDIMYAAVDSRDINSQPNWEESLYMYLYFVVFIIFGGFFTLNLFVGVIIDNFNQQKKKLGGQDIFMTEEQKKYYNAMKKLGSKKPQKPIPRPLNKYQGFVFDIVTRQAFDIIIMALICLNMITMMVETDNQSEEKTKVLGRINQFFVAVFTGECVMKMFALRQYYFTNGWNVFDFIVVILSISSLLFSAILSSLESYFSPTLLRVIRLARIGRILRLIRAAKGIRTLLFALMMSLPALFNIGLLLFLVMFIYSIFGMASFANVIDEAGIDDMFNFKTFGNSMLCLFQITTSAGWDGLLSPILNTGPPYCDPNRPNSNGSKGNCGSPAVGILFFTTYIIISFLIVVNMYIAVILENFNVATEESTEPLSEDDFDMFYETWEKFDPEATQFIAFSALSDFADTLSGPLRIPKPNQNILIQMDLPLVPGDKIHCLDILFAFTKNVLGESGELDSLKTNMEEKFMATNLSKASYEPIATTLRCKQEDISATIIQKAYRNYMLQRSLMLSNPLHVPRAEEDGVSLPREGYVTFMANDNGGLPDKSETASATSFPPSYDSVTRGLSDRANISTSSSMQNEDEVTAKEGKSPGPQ
Sequence of Cytochrome P450 2C19 (P33261 whole entry): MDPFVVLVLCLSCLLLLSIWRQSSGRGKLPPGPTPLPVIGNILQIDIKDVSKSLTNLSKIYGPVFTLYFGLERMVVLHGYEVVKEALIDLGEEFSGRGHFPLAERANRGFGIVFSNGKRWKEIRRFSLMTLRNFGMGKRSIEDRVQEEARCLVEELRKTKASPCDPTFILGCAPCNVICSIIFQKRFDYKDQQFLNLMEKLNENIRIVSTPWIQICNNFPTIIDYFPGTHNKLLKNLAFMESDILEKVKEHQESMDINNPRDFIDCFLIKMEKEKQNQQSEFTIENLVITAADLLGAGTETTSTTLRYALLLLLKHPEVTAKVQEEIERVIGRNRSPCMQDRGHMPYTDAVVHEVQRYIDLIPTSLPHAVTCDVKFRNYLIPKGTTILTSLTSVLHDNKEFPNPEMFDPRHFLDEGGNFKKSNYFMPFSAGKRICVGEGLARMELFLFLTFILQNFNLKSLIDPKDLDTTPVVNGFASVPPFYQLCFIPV

As a reminder, the half-life is the time in which the quantity being followed falls by half. Read a high half-life as slow decline. A word on the IC50: it is the concentration that inhibits the measured activity by half. What is called inhibition is how much of the control response was suppressed. As a reminder, the Vdss is a proportionality between amount in the body and measured concentration, not a real space. A word on the Papp A→B: it is how fast a substance crosses the layer from the apical side. Broadly, the logD is lipophilicity at a set pH, counting ionised and neutral species. With `CC1(COc2cc(F)c(C(=O)NS(=O)(=O)C3CC3)cc2C2CC2)CCC2(CC1)CC2`, the figures for the concentration at 3.167 h in [1], in data set [11] and in [13] were 25 µM, 79 µM and 1.9 µM, respectively. Also, the half-life in data set [2] is 6 h. Further, the IC50 in [3] was 38 nM; against Cytochrome P450 1A2 it was over 10000 nM; in data set [12], 0.6 nM; against Cytochrome P450 2C19, over 10000 nM. Moreover, in [4], the Activity result was “Non-Toxic”. Moreover, the fraction unbound in data set [5] is 0.001. Further, the inhibition in data set [6] came to 91%; in the data set listed under Homo sapiens it was 80%; in data set [9], 38%. The compound also displayed a Vdss in [7] of 0.41 L/kg. Further, the Papp A→B in data set [8] was determined as 5.1 ×10⁻⁶ cm/s. Further, in data set [10], the logD amounted to 2.1. For the same compound, the Kp at 3.167 h in [14] amounted to 0.08.
